According to ChEMBL document CHEMBL1909046, “DrugMatrix in vitro pharmacology data”:

How the values were obtained:
[1] = biological target: T1, Muscarinic acetylcholine receptor M4 (Homo sapiens, UniProt P08173); format: cell membranes, CHO-K1, Membrane; settings: cho-k1; also: in other assays of this panel Not Active means under 50% inhibition at 10 µM
T1 sequence (P08173 whole entry): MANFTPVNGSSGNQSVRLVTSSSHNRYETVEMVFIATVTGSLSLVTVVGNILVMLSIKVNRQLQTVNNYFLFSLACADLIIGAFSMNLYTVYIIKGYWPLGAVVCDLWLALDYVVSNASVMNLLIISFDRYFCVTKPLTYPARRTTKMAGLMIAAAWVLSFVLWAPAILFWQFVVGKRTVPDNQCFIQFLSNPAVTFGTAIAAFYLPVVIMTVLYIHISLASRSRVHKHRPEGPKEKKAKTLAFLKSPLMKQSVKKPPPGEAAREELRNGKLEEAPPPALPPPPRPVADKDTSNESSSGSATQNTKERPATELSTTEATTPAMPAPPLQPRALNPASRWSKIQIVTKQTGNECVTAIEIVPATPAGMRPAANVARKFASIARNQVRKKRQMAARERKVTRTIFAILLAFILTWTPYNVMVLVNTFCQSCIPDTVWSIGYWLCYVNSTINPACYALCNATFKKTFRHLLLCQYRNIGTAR

B2 bradykinin receptor = biological target: T2, B2 bradykinin receptor (Homo sapiens, UniProt P30411); format: cell membranes, Membrane; settings: chem-1; also: in other assays of this panel Not Active means under 50% inhibition at 10 µM
T2 sequence (P30411 whole entry): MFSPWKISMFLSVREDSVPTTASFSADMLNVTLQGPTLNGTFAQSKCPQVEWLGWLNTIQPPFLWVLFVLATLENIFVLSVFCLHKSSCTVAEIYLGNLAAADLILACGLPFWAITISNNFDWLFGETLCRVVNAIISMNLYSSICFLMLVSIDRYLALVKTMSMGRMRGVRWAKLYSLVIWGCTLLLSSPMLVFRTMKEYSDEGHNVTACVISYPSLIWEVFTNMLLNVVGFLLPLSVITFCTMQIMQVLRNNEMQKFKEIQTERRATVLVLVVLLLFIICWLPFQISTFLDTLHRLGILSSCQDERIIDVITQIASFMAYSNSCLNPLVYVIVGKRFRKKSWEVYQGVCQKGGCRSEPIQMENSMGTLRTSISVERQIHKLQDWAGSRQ

[2] = biological target: Sodium-dependent dopamine transporter (Homo sapiens, UniProt Q01959); experiment: DRUGMATRIX: Dopamine Transporter radioligand binding (ligand: [125I] RTI-55); format: cell membranes, CHO-K1, Membrane; settings: cho-k1; Not Active = under 50% inhibition at 10 µM
Sequence of Sodium-dependent dopamine transporter (Q01959 whole entry): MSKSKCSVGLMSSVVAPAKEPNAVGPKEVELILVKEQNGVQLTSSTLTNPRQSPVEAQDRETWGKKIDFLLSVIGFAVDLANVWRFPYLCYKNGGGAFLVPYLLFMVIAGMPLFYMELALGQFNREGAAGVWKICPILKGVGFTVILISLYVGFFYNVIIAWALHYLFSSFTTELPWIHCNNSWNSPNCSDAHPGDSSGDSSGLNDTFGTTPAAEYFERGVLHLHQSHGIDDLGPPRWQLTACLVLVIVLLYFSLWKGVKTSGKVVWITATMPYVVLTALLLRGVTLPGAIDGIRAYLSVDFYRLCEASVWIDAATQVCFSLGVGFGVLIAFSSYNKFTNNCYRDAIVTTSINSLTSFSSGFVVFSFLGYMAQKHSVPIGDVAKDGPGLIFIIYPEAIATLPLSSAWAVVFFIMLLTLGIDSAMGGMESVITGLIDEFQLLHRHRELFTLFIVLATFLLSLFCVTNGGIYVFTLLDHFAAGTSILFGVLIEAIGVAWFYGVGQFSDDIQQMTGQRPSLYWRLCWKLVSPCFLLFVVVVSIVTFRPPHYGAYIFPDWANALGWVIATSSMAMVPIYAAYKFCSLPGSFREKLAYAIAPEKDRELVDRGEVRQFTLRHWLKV

[3] = biological target: 5-hydroxytryptamine receptor 4 (Cavia porcellus, UniProt O70528); format: cell membranes, Dunkin-Hartley, Striatum, Membrane; also: in other assays of this panel Not Active means under 50% inhibition at 10 µM
Sequence of 5-hydroxytryptamine receptor 4 (O70528 whole entry): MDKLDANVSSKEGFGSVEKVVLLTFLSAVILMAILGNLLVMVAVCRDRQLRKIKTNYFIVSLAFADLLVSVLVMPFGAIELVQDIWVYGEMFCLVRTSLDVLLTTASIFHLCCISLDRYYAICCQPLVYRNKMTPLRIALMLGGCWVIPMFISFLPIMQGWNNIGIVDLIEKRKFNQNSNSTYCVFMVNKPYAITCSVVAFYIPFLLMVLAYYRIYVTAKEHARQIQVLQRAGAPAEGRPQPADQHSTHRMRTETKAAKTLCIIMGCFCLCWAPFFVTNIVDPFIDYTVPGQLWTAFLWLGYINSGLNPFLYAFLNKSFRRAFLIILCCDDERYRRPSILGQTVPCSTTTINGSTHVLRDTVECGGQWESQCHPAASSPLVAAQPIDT

[4] = DRUGMATRIX: Glutamate, NMDA, Phencyclidine radioligand binding (ligand: [3H] TCP); format: cell membranes, Rattus norvegicus, Wistar, Cerebral cortex, Membrane; settings: Not Active = under 50% inhibition at 10 µM
[5] = biological target: C-C chemokine receptor type 5 (Homo sapiens, UniProt P51681); format: cell membranes, Membrane; settings: hek293; also: in other assays of this panel Not Active means under 50% inhibition at 10 µM
Sequence of C-C chemokine receptor type 5 (P51681 whole entry): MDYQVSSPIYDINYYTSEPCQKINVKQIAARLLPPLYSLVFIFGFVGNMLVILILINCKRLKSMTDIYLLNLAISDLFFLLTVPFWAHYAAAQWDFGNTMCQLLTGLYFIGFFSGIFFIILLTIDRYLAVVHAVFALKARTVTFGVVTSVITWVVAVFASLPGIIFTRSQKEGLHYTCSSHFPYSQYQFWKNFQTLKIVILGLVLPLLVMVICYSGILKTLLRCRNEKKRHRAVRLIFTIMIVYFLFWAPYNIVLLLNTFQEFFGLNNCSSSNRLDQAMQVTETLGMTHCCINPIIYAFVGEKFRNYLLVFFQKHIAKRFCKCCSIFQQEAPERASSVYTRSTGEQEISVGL

[6] = DRUGMATRIX: Calcium Channel Type L, Benzothiazepine radioligand binding (ligand: [3H] Diltiazem); format: cell membranes, Rattus norvegicus, Wistar, Brain, Membrane; settings: Not Active = under 50% inhibition at 10 µM
D(1A) dopamine receptor = D(1A) dopamine receptor (Homo sapiens, UniProt P21728); experiment: DRUGMATRIX: Dopamine D1 radioligand binding (ligand: [3H] SCH-23390); format: cell membranes, CHO, Membrane; settings: cho; Not Active = under 50% inhibition at 10 µM
Sequence of D(1A) dopamine receptor (P21728 whole entry): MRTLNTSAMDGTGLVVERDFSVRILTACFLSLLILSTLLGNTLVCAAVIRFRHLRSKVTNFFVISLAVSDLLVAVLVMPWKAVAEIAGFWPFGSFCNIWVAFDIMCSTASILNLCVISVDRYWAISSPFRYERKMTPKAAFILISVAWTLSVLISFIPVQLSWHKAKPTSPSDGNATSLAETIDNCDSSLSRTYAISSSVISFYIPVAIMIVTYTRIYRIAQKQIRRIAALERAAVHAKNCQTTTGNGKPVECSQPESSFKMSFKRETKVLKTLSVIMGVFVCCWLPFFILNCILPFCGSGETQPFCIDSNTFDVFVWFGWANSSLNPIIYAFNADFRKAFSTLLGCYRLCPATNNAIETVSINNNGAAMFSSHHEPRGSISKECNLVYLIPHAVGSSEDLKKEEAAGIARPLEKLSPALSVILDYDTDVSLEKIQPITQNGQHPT

[7] = biological target: Matrix metalloproteinase-9 (Homo sapiens, UniProt P14780); format: cell-based
Sequence of Matrix metalloproteinase-9 (P14780 whole entry): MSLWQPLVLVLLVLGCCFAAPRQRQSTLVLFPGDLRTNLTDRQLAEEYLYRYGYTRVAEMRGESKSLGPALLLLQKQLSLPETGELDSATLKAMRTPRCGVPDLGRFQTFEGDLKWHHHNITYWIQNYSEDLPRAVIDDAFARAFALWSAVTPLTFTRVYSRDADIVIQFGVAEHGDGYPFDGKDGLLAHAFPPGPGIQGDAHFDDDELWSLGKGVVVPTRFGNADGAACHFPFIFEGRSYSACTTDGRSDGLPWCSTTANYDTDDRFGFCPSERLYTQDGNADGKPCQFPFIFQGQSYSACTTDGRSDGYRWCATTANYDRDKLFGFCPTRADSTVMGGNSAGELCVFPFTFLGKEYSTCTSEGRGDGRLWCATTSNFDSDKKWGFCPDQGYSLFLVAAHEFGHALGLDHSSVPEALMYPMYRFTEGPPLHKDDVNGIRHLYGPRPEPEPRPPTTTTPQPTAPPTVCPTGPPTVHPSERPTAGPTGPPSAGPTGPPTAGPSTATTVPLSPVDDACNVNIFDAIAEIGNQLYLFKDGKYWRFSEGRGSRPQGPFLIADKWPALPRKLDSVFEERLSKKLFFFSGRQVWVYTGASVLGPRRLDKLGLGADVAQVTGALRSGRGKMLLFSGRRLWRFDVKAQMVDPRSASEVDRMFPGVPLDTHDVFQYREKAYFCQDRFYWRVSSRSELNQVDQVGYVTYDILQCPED

[8] = biological target: C-C chemokine receptor type 2 (Homo sapiens, UniProt P41597); format: cell membranes, CHO-K1, Membrane; settings: cho-k1; also: in other assays of this panel Not Active means under 50% inhibition at 10 µM
Sequence of C-C chemokine receptor type 2 (P41597 whole entry): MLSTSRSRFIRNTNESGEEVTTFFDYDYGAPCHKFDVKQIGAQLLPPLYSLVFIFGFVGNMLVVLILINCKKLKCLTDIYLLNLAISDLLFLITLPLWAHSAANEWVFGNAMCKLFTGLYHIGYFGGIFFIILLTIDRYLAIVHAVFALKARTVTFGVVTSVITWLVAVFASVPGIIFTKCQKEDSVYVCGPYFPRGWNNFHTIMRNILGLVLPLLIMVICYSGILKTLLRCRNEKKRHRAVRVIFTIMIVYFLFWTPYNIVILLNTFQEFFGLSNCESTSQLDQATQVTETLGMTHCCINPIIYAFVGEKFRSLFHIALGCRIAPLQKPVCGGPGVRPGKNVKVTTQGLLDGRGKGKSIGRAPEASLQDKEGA

[9] = biological target: T3, Receptor-type tyrosine-protein phosphatase C (Homo sapiens, UniProt P08575); parameters: species or system Escherichia coli
T3 sequence (P08575 whole entry): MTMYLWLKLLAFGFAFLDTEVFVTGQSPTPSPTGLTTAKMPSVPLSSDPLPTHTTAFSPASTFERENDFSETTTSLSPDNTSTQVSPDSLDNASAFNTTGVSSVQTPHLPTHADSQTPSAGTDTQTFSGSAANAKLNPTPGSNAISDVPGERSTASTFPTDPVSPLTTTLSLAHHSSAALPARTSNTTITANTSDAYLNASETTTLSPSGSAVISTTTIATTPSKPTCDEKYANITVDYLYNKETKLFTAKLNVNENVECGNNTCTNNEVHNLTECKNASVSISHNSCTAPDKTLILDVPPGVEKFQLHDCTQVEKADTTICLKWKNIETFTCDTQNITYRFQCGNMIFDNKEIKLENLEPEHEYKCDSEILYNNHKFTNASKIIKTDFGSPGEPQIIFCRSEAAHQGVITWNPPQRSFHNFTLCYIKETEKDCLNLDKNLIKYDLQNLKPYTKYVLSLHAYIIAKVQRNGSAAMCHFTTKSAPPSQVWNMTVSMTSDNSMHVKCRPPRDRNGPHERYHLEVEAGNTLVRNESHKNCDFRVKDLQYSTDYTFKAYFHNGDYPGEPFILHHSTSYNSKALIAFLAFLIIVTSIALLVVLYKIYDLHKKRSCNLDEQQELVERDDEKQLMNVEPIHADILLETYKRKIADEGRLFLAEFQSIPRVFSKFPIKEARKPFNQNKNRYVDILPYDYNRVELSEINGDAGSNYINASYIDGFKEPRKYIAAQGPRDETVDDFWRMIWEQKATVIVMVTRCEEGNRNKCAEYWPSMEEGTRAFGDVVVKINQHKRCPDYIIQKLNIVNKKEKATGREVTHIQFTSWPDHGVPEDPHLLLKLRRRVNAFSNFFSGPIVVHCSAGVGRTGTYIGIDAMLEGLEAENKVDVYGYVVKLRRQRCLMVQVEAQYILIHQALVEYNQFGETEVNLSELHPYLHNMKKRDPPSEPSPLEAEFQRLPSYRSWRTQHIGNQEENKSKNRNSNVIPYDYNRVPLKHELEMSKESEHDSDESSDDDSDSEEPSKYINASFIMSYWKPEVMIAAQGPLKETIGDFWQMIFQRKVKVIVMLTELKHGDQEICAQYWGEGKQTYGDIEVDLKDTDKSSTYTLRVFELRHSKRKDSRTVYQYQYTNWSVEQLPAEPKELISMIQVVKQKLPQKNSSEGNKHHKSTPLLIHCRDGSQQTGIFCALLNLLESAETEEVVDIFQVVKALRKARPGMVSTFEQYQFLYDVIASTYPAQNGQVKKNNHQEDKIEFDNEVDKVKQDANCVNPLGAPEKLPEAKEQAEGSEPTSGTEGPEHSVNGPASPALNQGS

Estrogen receptor beta = Estrogen receptor beta (Homo sapiens, UniProt Q92731); settings: sf9; also: in other assays of this panel Not Active means under 50% inhibition at 10 µM
Sequence of Estrogen receptor beta (Q92731 whole entry): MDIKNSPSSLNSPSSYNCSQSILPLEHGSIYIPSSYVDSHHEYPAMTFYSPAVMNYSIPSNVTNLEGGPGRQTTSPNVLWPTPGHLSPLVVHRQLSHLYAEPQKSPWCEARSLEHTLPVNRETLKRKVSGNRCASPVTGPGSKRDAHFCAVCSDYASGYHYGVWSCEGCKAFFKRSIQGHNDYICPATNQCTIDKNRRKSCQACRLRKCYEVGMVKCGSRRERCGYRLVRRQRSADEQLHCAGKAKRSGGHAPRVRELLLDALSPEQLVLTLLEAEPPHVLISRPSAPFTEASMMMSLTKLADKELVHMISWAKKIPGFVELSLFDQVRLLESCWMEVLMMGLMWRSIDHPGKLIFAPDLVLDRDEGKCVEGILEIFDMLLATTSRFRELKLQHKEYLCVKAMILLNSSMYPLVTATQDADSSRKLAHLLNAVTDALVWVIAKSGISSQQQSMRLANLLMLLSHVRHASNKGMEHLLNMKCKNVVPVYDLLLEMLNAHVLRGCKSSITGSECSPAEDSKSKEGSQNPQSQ

Cytochrome P450 2E1 = Cytochrome P450 2E1 (Homo sapiens, UniProt P05181); settings: bti-tn-5b1-4; also: in other assays of this panel Not Active means under 50% inhibition at 10 µM
Sequence of Cytochrome P450 2E1 (P05181 whole entry): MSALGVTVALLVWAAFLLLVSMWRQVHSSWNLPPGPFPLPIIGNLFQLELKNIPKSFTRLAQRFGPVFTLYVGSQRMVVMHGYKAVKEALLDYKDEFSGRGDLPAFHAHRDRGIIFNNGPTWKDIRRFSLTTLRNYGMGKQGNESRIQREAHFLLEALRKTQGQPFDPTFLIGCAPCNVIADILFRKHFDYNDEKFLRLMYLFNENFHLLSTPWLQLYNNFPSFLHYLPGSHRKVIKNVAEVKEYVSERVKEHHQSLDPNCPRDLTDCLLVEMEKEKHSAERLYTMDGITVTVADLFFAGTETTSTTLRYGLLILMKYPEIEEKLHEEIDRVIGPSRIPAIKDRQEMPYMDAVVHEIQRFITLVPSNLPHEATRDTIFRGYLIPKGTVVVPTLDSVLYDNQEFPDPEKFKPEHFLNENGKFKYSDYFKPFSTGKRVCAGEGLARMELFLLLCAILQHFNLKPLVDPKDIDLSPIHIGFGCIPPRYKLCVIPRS

O=C1CN=C(c2ccccc2)c2cc([N+](=O)[O-])ccc2N1 [NITRAZEPAM]
Not Active: IC50 [1] | IC50 (B2 bradykinin receptor) | IC50 [2] | IC50 [3] | IC50 [4] | Ki [4] | IC50 [5] | IC50 [6] | Ki [6] | IC50 (D(1A) dopamine receptor) | IC50 [7] | IC50 [8] | IC50 [9] | IC50 (Estrogen receptor beta) | IC50 (Cytochrome P450 2E1) | Ki (Cytochrome P450 2E1)

Oc1cccc2cccnc12 [OXYQUINOLINE]
Not Active: IC50 [1] | IC50 (B2 bradykinin receptor) | IC50 [2] | IC50 [3] | IC50 [4] | Ki [4] | IC50 [5] | IC50 [6] | Ki [6] | IC50 (D(1A) dopamine receptor) | IC50 [7] | IC50 [8] | IC50 [9] | IC50 (Estrogen receptor beta) | IC50 (Cytochrome P450 2E1) | Ki (Cytochrome P450 2E1)

CN(C)[C@@H]1C(O)=C(C(N)=O)C(=O)[C@@]2(O)C(O)=C3C(=O)c4c(O)cccc4[C@@](C)(O)[C@H]3[C@H](O)[C@@H]12 [OXYTETRACYCLINE]
Not Active: IC50 [1] | IC50 (B2 bradykinin receptor) | IC50 [2] | IC50 [3] | IC50 [4] | Ki [4] | IC50 [5] | IC50 [6] | Ki [6] | IC50 (D(1A) dopamine receptor) | IC50 [7] | IC50 [8] | IC50 [9] | IC50 (Estrogen receptor beta) | IC50 (Cytochrome P450 2E1) | Ki (Cytochrome P450 2E1)

CC(C)(S)[C@@H](N)C(=O)O [PENICILLAMINE]
Not Active: IC50 [1] | IC50 (B2 bradykinin receptor) | IC50 [2] | IC50 [3] | IC50 [4] | Ki [4] | IC50 [5] | IC50 [6] | Ki [6] | IC50 (D(1A) dopamine receptor) | IC50 [7] | IC50 [8] | IC50 [9] | IC50 (Estrogen receptor beta) | IC50 (Cytochrome P450 2E1) | Ki (Cytochrome P450 2E1)

CC(=O)CCCCn1c(=O)c2c(ncn2C)n(C)c1=O [PENTOXIFYLLINE]
Not Active: IC50 [1] | IC50 (B2 bradykinin receptor) | IC50 [2] | IC50 [3] | IC50 [4] | Ki [4] | IC50 [5] | IC50 [6] | Ki [6] | IC50 (D(1A) dopamine receptor) | IC50 [7] | IC50 [8] | IC50 [9] | IC50 (Estrogen receptor beta) | IC50 (Cytochrome P450 2E1) | Ki (Cytochrome P450 2E1)

C=C(C)[C@@H]1[C@H]2OC(=O)[C@@H]1[C@]1(O)C[C@H]3O[C@]34C(=O)O[C@H]2[C@]14C [PICROTOXININ]
Not Active: IC50 [1] | IC50 (B2 bradykinin receptor) | IC50 [2] | IC50 [3] | IC50 [4] | Ki [4] | IC50 [5] | IC50 [6] | Ki [6] | IC50 (D(1A) dopamine receptor) | IC50 [7] | IC50 [8] | IC50 [9] | IC50 (Estrogen receptor beta) | IC50 (Cytochrome P450 2E1) | Ki (Cytochrome P450 2E1)

CCC1(c2ccccc2)C(=O)NCNC1=O [PRIMIDONE]
Not Active: IC50 [1] | IC50 (B2 bradykinin receptor) | IC50 [2] | IC50 [3] | IC50 [4] | Ki [4] | IC50 [5] | IC50 [6] | Ki [6] | IC50 (D(1A) dopamine receptor) | IC50 [7] | IC50 [8] | IC50 [9] | IC50 (Estrogen receptor beta) | IC50 (Cytochrome P450 2E1) | Ki (Cytochrome P450 2E1)
